The results in this text go back to patent US10988600B2, “Cyclodextrin-grafted cross-linked hyaluronic acid complexed with active drug substances and uses thereof” (GALDERMA S.A., priority 2016, dated 2021).

The nature of this series: Solubility study of adapalene with randomly methylated β-cyclodextrins. It counts as physicochemical. How it is done:
A solubility study was performed by adding excess amounts of adapalene (5 mg) to six glass vials containing 10 mL aqueous solutions of increasing concentrations of randomly methylated β-cyclodextrins (0-7×10^−3 M) dissolved in 154 mM NaCl and 10 mM Na-phosphate (pH 7). The samples were mixed at room temperature for six days, and then they were centrifuged at 4000 rpm for 3 minutes. The supernatants were filtered through a 0.2 μm filter in order to remove undissolved adapalene. The UV absorbance of the filtrates was then measured at 320 nm in order to determine the concentration of dissolved adapalene. The concentration of adapalene in each sample was calculated from a calibration curve.
For sample 1, from the solubility diagram study in Example 16 containing 0.7 mM randomly methylated β-cyclodextrin and an excess of adapalene, 550 μl of the filtered sample, was added to a 2 ml Eppendorf tube. The sample was then lyophilized and the solvent exchanged to D2O.
Sample 2 containing 1.5 mM randomly methylated β-cyclodextrin and 0.15 mM of adapalene dissolved in D2O and 1% DMSO-d6 was prepared by adding 550 μl of the sample to a 2 ml Eppendorf tube. The sample was then lyophilized and the solvent exchanged again to D2O.

Molecules are shown by their SMILES.

`COc1ccc(-c2ccc3cc(C(=O)O)ccc3c2)cc1C12CC3CC(CC(C3)C1)C2` [adapalene, 6-[3-(1-adamantyl)-4-methoxy-phenyl] naphthalene-2-carboxylic acid]: the Solubility of adapalene result (randomly methylated β-cyclodextrins 0-7×10^−3 M, 154 mM NaCl, 10 mM Na-phosphate pH 7, room temperature, six days (FIG. 3)) is “increases with increasing CD concentration”. The Complexed adapalene entry is “about 0.075 mM” (sample 1: 0.7 mM randomly methylated β-cyclodextrin, excess adapalene, filtered, according to solubility diagram data); “about 0.15 mM” (sample 2: 1.5 mM randomly methylated β-cyclodextrin and 0.15 mM adapalene in D2O and 1% DMSO-d6).
